# In patent US20160052898A1, “NOVEL COMPOUNDS” (BAYER PHARMA AKTIENGESELLSCHAFT, priority 2013, published 2016):
# Tests used:
# Type in all cases: cell-based
# [1] = system: constitutive active colorectal cancer cell (CRC) Wnt pathway; assay: HCT116 Super TopFlash cellular reporter assay (constitutive active Wnt pathway); settings: Homo sapiens, HCT-116, 36 h, HCT116 TOP reporter cells, luciferase expression, 36 hours incubation, 50 μM to 15 nM
# Summary of the method: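 Luciferase luminescence served as the Wnt read-out after 36 h of compound treatment at 37 °C. Compound came from a pre-dilution series (50 μM down to 15 nM, 3.16-fold steps) in CAFTY buffer. Cells were stable HCT116 TOP reporter cells, with matched FOP-vector control cells tested in parallel, seeded a day earlier.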
# [2] = system: HCT116 FOP control reporter cell line; assay: HCT116 FOP control vector reporter assay (non-functional TCF elements); settings: Homo sapiens, HCT-116, 36 h, HCT116 FOP control reporter cells, luciferase expression, 36 hours incubation, 50 μM to 15 nM; read-out: HCT116 FOPFlash IC50
# Summary of the method: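 Stable HCT116 line carrying the non-functional FOP luciferase construct, 10000 cells/well plated 24 hrs before. Compounds 50 μM to 15 nM (3.16-fold steps) in CAFTY buffer pH 7.4 with 2 mM Ca2+, 36 hours at 37° C; luciferase luminescence read.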
# wildtype Wnt pathway = assay: HEK293 Super TopFlash cellular reporter assay, Wnt-3a stimulated (wildtype Wnt pathway); settings: Homo sapiens; HEK293 TOP reporter cells, EC50 concentration of recombinant Wnt-3a, 16 hours incubation; read-out: HEK TOP OncoFlash IC50
# Summary of the method: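 Stable HEK293 Super TopFlash and FOP reporter cells stimulated with recombinant human Wnt-3a (2500–5 ng/ml, two-fold steps). Compounds tested 50 μM to 15 nM in 3.16-fold steps in CAFTY buffer pH 7.4 with 2 mM Ca2+ and 0.01% BSA; luciferase read-out.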
# [3] = system: HEK293 FOP control reporter cell line; assay: HEK293 FOP control vector reporter assay; settings: Homo sapiens; HEK293 FOP control reporter cells, EC50 concentration of recombinant Wnt-3a, 16 hours incubation; read-out: HEK FOP IC50
# Summary of the method: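 Stable HEK293 cells carrying FOP control vector (non-functional TCF sites), 10000 cells/well plated 24 h before, stimulated with recombinant human Wnt-3a at 2500–5 ng/ml in two-fold steps. Compounds from 50 μM to 15 nM (3.16-fold) in CAFTY buffer pH 7.4 with 2 mM Ca2+, 0.01% BSA, run in parallel with TOP line; luciferase read-out.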
Structure (SMILES),IC50 [1] [nM],IC50 [2] [µM],IC50 (wildtype Wnt pathway) [nM],IC50 [3] [µM]
"COc1ccc(NC(=O)c2ccc(-c3ccccc3)cc2)cc1NC(=O)CN1CC2CCC(C1)O2 [Example 32, N-{4-methoxy-3-[(8-oxa-3-azabicyclo[3.2.1]oct-3-ylacetyl)amino]phenyl}biphenyl-4-carboxamide]",170,≥ 50,520,17
"CNC(=O)c1ccc(C(=O)Nc2ccc(-c3ccccc3)cc2)cc1NC(=O)CN1CCOCC1 [Example 22, N^4-(biphenyl-4-yl)-N^1-methyl-2-[(morpholin-4-ylacetyl)amino]terephthalamide]",55.2,≥ 50,77,≥ 50
"O=C(Nc1ccc(-c2ccccc2)cc1)c1ccc(OC2CC2)c(NC(=O)C2(N3CCN(C4CC4)CC3)CC2)c1 [Example 115, N-(biphenyl-4-yl)-4-(cyclopropyloxy)-3-({[1-(4-cyclopropylpiperazin-1-yl)cyclopropyl]carbonyl}amino)benzamide]",36.2,≥ 50,170,≥ 50
"COc1ccc(NC(=O)c2ccc(-c3ccccc3)cc2)cc1NC(=O)CN1CC[C@@H](O)C1 [Example 43, N-[3-({[(3R)-3-hydroxypyrrolidin-1-yl]acetyl}amino)-4-methoxyphenyl]biphenyl-4-carboxamide]",2650,≥ 50,1200,≥ 50
"COc1ccc(NC(=O)c2ccc(-c3ccccc3)cc2)cc1NC(=O)CN1CCN(C2CC2)CC1 [Example 35, N-(3-{[(4-cyclopropylpiperazin-1-yl)acetyl]amino}-4-methoxyphenyl)biphenyl-4-carboxamide]",1180,≥ 50,920,29
"C[C@@H](C(=O)Nc1cc(NC(=O)c2ccc(-c3ccccc3)cc2)ccc1F)N1CCOCC1 [Example 30, N-(4-fluoro-3-{[(2S)-2-(morpholin-4-yl)propanoyl]amino}phenyl)biphenyl-4-carboxamide]",1640,≥ 50,920,9.2
"CC(C(=O)Nc1cc(NC(=O)c2ccc(-c3ccccc3)cc2)ccc1OC(F)(F)F)N1CC2CCC(C1)O2 (stereo not drawn) [Example 58, N-[3-{[2-(8-oxa-3-azabicyclo[3.2.1]oct-3-yl)propanoyl]amino}-4-(trifluoromethoxy)phenyl]biphenyl-4-carboxamide]",54,≥ 50,2200,35
"COc1ccc(NC(=O)c2ccc(-c3cccc(Cl)c3)cc2)cc1NC(=O)CN1CCOCC1 [Example 73, 3′-chloro-N-{4-methoxy-3-[(morpholin-4-ylacetyl)amino]phenyl}biphenyl-4-carboxamide]",1450,≥ 50,1500,32
"C[C@@H](C(=O)Nc1cc(C(=O)Nc2ccc(-c3ccccc3)cc2)ccc1C(F)(F)F)N1CCOCC1 [Example 15, N-(biphenyl-4-yl)-3-{[(2S)-2-(morpholin-4-yl)propanoyl]amino}-4-(trifluoromethyl)benzamide]",29.6,39.5,100,4
"O=C(CN1CCOCC1)Nc1cc(C(=O)Nc2ccc(-c3ccccc3)cc2)ccc1OC1CC1 [Example 112, N-(biphenyl-4-yl)-4-(cyclopropyloxy)-3-[(morpholin-4-ylacetyl)amino]benzamide]",83.2,≥ 50,77,≥ 50
"C[C@@H](C(=O)Nc1cc(NC(=O)c2ccc(-c3ccccc3)cc2)ccc1OC(F)(F)F)N1CCOCC1 [Example 62, N-[3-{[(2S)-2-(morpholin-4-yl)propanoyl]amino}-4-(trifluoromethoxy)phenyl]biphenyl-4-carboxamide]",61,≥ 50,55,8
"O=C(CN1CCOCC1)Nc1cc(NC(=O)c2ccc(-c3ccccc3)cc2)ccc1OC(F)(F)F [Example 66, N-{3-[(morpholin-4-ylacetyl)amino]-4-(trifluoromethoxy)phenyl}biphenyl-4-carboxamide]",39.2,≥ 50,1600,≥ 50
"COCCOCc1ccc(C(=O)Nc2ccc(-c3ccccc3)cc2)cc1NC(=O)CN1CCOCC1 [Example 86, N-(biphenyl-4-yl)-4-[(2-methoxyethoxy)methyl]-3-[(morpholin-4-ylacetyl)amino]benzamide]",87,≥ 50,610,≥ 50
"COc1ccc(NC(=O)c2ccc(-c3cccc(C#N)c3)cc2)cc1NC(=O)CN1CCOCC1 [Example 72, 3′-cyano-N-{4-methoxy-3-[(morpholin-4-ylacetyl)amino]phenyl}biphenyl-4-carboxamide]",3750,≥ 50,1300,≥ 50
"COc1ccc(NC(=O)c2ccc(-c3ccccc3F)cc2)cc1NC(=O)CN1CCOCC1 [Example 82, 2′-fluoro-N-{4-methoxy-3-[(morpholin-4-ylacetyl)amino]phenyl}biphenyl-4-carboxamide]",325,≥ 50,1700,≥ 50
"CSc1ccc(C(=O)Nc2ccc(-c3ccccc3)cc2)cc1NC(=O)CN1CCOCC1 [Example 109, N-(biphenyl-4-yl)-4-(methylsulfanyl)-3-[(morpholin-4-ylacetyl)amino]benzamide]",48.8,≥ 50,280,≥ 50
"CCOc1ccc(C(=O)Nc2ccc(-c3ccccc3)cc2)cc1NC(=O)CN1CCOCC1 [Example 26, N-(biphenyl-4-yl)-4-ethoxy-3-[(morpholin-4-ylacetyl)amino]benzamide]",63.7,≥ 50,970,≥ 50
"COc1ccc(NC(=O)c2ccc(-c3ccccc3)cc2)cc1NC(=O)C(C)(C)N1CCOCC1 [Example 28, N-(4-methoxy-3-{[2-methyl-2-(morpholin-4-yl)propanoyl]amino}phenyl)biphenyl-4-carboxamide]",1790,≥ 50,2400,≥ 50
"COc1ccc(NC(=O)c2ccc(-c3ccccc3)cc2)cc1NC(=O)CN1CCOC(C)(C)C1 [Example 41, N-(3-{[(2,2-dimethylmorpholin-4-yl)acetyl]amino}-4-methoxyphenyl)biphenyl-4-carboxamide]",2400,≥ 50,710,≥ 50
"COc1ccc(NC(=O)c2ccc(-c3ccccc3)cc2)cc1NC(=O)CN1CCOC[C@@H]1C [Example 48, N-[4-methoxy-3-({[(3S)-3-methylmorpholin-4-yl]acetyl}amino)phenyl]biphenyl-4-carboxamide]",856,12,2800,≥ 50
"CC(C)(C(=O)Nc1cc(C(=O)Nc2ccc(-c3ccccc3)cc2)ccc1C(F)(F)F)n1cccn1 [Example 4, N-(biphenyl-4-yl)-3-{[2-methyl-2-(1H-pyrazol-1-yl)propanoyl]amino}-4-(trifluoromethyl)benzamide]",112,≥ 50,400,8.6
